Results from patent US20250340847A1, “CELL CULTURE SYSTEM, USES THEREOF AND CELLS DERIVED THEREFROM” (UNIVERSITY OF PITTSBURGH-OF THE COMMONWEALTH SYSTEM OF …, priority 2022, published 2025).

Assays:
[1] = target: CXCR4 (Homo sapiens, UniProt P61073); conditions: 1p M AMD3465 beginning at day 0 of iDiscoid culture; day 5
Procedure: (§1) Signaling Pathway Inhibition. BMP4 signaling was inhibited via application of 3 μM Dorsomorphin into the normal media at day 3 of iDiscoid culture. NODAL signaling was inhibited via application of 10 μM SB431542 beginning at day 2 of iDiscoid culture. CXCR4 signaling was inhibited via application of 1p M AMD3465 beginning at day 0 of iDiscoid culture.

[2] = system: iGATA6 cells; experiment: Dox induction of GATA6 gene circuit in iGATA6 hiPSCs; format: cell-based, human; conditions: after treatment with Dox
Procedure: Generation of iDiscoid. The GATA6-engineered hiPSCs were seeded at a ratio of 4:1 with rtTA expressing hiPSCs either containing or lacking an mKate reporter gene at a total density of 25,000 cells per cm^2 in mTeSR-1 supplemented with […] Y-27632. The next day, the medium was changed to mTeSR-1 with […] doxycycline to induce expression of the GATA6 transgene and replaced daily for up to 5 days.
Time lapse Imaging. iGATA6 cells were seeded at 25,000 cells per cm^2 in a Cellstar 24-well tissue culture treated plate coated […], then induced with 1,000 ng ml^−1 Dox. After induction, the cells were placed under an Incucyte S3 live cell imaging platform at 37C and 5% CO2. Images were taken every 30 min for 3 days.

[3] = system: NODAL signaling; experiment: Day 4 scRNAseq of iDiscoid after SB431542 application at day 2; format: cell-based, human
[4] = system: NODAL signaling; experiment: NODAL signaling inhibition in iDiscoid culture, immunofluorescence; format: cell-based, human; conditions: 10 μM SB431542 beginning at day 2 of iDiscoid culture
Procedure: as §1
Staining on glass coverslips. Cells were grown on Matrigel-coated 8 mm diameter circular glass coverslips or on Mattek 35 mm coverslip bottom dishes. Cultures were fixed for 10 minutes in 4% paraformaldehyde (Electron Microscopy Sciences) at room temperature. For toluidine blue staining in FIG. 12B, cells were fixed for 1 hour in 2.5% glutaraldehyde in 0.01M PBS, pH 7.4, at room temperature. Coverslips were then washed three times with PBS followed by 15 minutes permeabilization with 0.2% Triton X-100 in PBS. Subsequently the coverslips were washed three times in washing buffer (0.05% Tween-20 in PBS) for 5 minutes and blocked for 20 minutes in […] wash buffer plus 5% normal donkey serum (Jackson ImmunoResearch Laboratories). The primary antibodies were diluted in 5% normal donkey serum in PBS and incubated with the tissues […] at room temperature followed by three washes in wash buffer for 5 minutes each. The secondary antibodies were diluted in 5% normal donkey serum in PBS and incubated with the tissues 1 hour at room temperature followed by three washes in wash buffer for 5 minutes each. Afterwards, the 8 mm coverslips were mounted on microscopy glass slides using ProLong Glass Antifade (Life Technologies), cured overnight at room temperature and then sealed with nail polish. Coverslips in Mattek dishes were stored in PBS at 4° C. for 3D imaging prior to mounting.
Image Acquisition and Processing. Images were acquired using the EVOS M700 automated scanning microscope, Leica SP8 confocal microscope, or Nikon A1 Confocal microscope and processed using ImageJ software (NIH). Any contrast adjustments were made in individual channels and applied evenly across the whole image in that channel. Contrast and color balance for color images was applied evenly across the whole image. 3D reconstructions were generated using the Nikon A1 confocal microscope to generate z-stacks spanning ˜100 um deep into the tissues and using ImageJ or Imaris (Bitplane) to construct a 3D volume from the stacks.

[5] = target: T1, NODAL (Homo sapiens, UniProt Q96S42); conditions: cited from earlier work
T1 sequence (Q96S42 238-347): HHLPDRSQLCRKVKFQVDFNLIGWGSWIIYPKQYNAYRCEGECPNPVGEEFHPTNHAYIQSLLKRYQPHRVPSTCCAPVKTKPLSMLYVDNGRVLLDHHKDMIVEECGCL

[6] = target: T2, BMP2 (Homo sapiens, UniProt P12643); conditions: cited from earlier work
T2 sequence (P12643 283-396): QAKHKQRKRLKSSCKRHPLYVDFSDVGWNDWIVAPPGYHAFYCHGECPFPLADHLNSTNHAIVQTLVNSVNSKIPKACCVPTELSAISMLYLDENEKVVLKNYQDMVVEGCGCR

[7] = target: T3, BMP4 (Homo sapiens, UniProt P12644); conditions: cited from earlier work
T3 sequence (P12644 293-408): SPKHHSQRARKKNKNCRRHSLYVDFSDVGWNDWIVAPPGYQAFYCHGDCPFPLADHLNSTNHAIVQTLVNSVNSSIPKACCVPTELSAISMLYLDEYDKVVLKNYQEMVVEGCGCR

[8] = day 4, SB431542 applied at day 2

Sequence of CXCR4 (P61073 whole entry): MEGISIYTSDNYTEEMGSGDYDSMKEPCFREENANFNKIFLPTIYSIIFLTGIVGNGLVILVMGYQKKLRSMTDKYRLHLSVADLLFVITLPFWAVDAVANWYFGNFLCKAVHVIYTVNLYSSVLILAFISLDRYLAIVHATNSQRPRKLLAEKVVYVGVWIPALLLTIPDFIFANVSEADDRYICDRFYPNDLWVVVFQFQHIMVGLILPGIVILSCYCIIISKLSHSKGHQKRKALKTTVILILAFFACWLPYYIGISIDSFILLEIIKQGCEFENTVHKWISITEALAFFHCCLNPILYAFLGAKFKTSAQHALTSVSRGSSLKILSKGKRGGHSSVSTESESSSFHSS

c1ccc(CNCc2ccc(CN3CCCNCCNCCCNCC3)cc2)nc1 [AMD3465]
upward migration and contiguous iGATA6 membrane formation [1]: substantially inhibits

C[C@H]1c2cccc(O)c2C(=O)C2=C(O)[C@]3(O)C(=O)C(C(N)=O)=C(O)[C@@H](N(C)C)[C@@H]3[C@@H](O)[C@@H]21 [Dox, Doxycycline]
EGFP expression in iGATA6 cells [2]: upregulate
pluripotency marker NANOG in iGATA6 cells [2]: loss

NC(=O)c1ccc(-c2nc(-c3ccc4c(c3)OCO4)c(-c3ccccn3)[nH]2)cc1 [SB431542]
system state after addition to the culture media ([3]; SB431542 added to the media): acquire and maintain a state similar to early human and primate amnion
NANOG expression within the WT (scRNAseq) [3, 8]: lost
pluripotency markers SOX2 and OCT4 within the WT (scRNAseq) [3, 8]: retained
expression of the amnion marker ISL1 (scRNAseq) ([3]; day 4, SB431542 applied at day 2, alongside CDX2, GATA3, AP-2γ): present in cluster 2
ISL1-expressing cells within iDiscoids / ISL1 expression [4]: lost
cavity formation / cavity morphology [4]: maintained
expression of NANOG within the WT clusters [4]: lost
ISL1-expressing cells within iDiscoids / ISL1 expression ([4]; listed as SB431542): substantial elimination
cavity formation / cavity morphology ([4]; listed as SB431542): preserved
expression of NANOG within the WT clusters ([4]; listed as SB431562): substantially decreased

B1: human CER1: human Cerberus ortholog, cerberus 1 (CER1) polypeptide (protein, UniProt O95813 18-267, looked up)
Cerberus: TRHQDGRQNQSSLSPVLLPRNQRELPTGNHEEAEEKPDLFVAVPHLVATSPAGEGQRQREKMLSRFGRFWKKPEREMHPSRDSDSEPFPPGTQSLIQPIDGMKMEKSPLREEAKKFWHHFMFRKTPASQGVILPIKSHEVHWETCRTVPFSQTITHEGCEKVVVQNNLCFGKCGSVHFPGAAQHSHTSCSHCLPAKFTTMHLPLNCTELSSVIKVVMLVEECQCKVKTEHEDGHILHAGSQDSFIPGVSA
affinity for NODAL [5]: high affinity
affinity for BMP2 [6]: minimal affinity
affinity for BMP4 [7]: minimal affinity
